Assay results taken from patent US20260200982A1, “HER RECEPTOR DERIVED PEPTIDES AND METHODS OF USE THEREOF” (Ramot at Tel-Aviv University Ltd., priority 2022, published 2026).
The star is where a group is joined. Myristoyl = CCCCCCCCCCCCCC(=O)*

Columns and labels:
DLD-1 cells = test: Colony formation assay, DLD-1; type: cell-based, human; settings: 20 μM, 72 hours, FIG. 12
Method: Colony formation assay—Cells were plated onto 12-well plate (6×10^4 cells/well) and treated with either PBS or myr-NLS at the IC50 concentration for 3 days. Cells were collected and replated in 10-cm plates (at 3 dilutions of 1:10, 1:20 and 1:40). After 7-14 days when visible and yet separated colonies were formed, the cells were fixed with 0.1% acetic acid in PBS, and stained with 0.4% crystal violet in 0.1% acetic acid. Total colonies area was calculated using the ImageJ program.
In addition, a colony formation assay was conducted to further examine the anti-tumor effect of the myr-NLS (SEQ ID NO: 5), myr-NLS2 (SEQ ID NO: 15) and myr-NLS4 (SEQ ID NO: 17) peptides. To this end, DLD-1 cells were treated or untreated for 72 hours with 20 μM of the myr-peptides. Cells were then seeded at the same dilutions in new plates until colonies were formed.

[1] = tested on: DLD-1 colon cancer tumor xenografts; test: Colon Tumor Growth in Nude Mice; type: in vivo; settings: DLD-1 xenografts, 25 μg/100 μl PBS intraperitoneal daily, FIGS. 14A-C
Method: Colon Tumor Growth in Nude Mice—Nude CD1-Nu mice (25-30 g) housed in barrier facilities on a 12-h light/dark cycle one week prior to the injection of tumor cells (day zero). On day zero, 5×10^6 DLD-1 cells were implanted subcutaneously just above the right femoral joint. Tumor size was measured every 3-4 days. When the tumors were apparently seen, the animals were divided randomly into three groups of mice [control vehicle treated, myr-NLS1 (SEQ ID NO: 5), myr-NLS4 (SEQ ID NO: 17)]. Treatment was performed by intraperitoneal injection of 25 μg in 100 μl PBS every day. Mice were weighed and tumors size was measured 3 times a week. At the end of the experiment, the mice were sacrificed, and the tumors were dissected and used for further analysis.

[2] = tested on: Panc-1 pancreatic cancer cells; type: cell-based, human; settings: Panc 1; 72 hours; FIGS. 4B and 4C; read-out: IC50 (cell viability)
Excerpt: (§1) Cell lines—Human breast cancer cell lines SKBR3 [Peles E et al. EMBO J. (1993) 12(3):961-71] and MCF7 [Faigenbloom L et al., Mol Syst Biol. (2015) 11(12):845] and human glioblastoma U87 [Goldberg L et al. Cancer Res. (2006) 66(24):11709-17] cell line, as well as Rat-1 fibroblast cells and H-Ras-transformed Rat-1 cells (EJ cells) [Marom M et al. J Biol Chem. (1995) 270(38):22263-70] and human Panc-1 and MIA PaCa-2 pancreatic cell lines (Rak R et al. Oncoscience. 2014 1(1):39-48; Weisz B et al. Oncogene (1999) 18, 2579±2588) were all grown in Dulbecco's modified Eagle's medium (DMEM; Biological Industries, Beithaemek, Israel). Human colorectal cancer cell lines DLD-1 (ATTC Cat No. CCL-221), HCT-116 (ATTC Cat No. CCL-247) and LNCaP prostate cancer cells were grown in Roswell Park Memorial Institute 1640 (RPMI 1640) medium and McCoy's 5A media, respectively (Sigma-Aldrich). All media were supplemented with antibiotics and 10% heat-inactivated fetal bovine serum (FBS; Gibco). Human breast cell line MCF10A [Bott A et al. Oncotarget. (2017) 8(27):43897-43914] was grown in Dulbeco's Modified Eagle's Medium/Nutrient Mixture F-12 HAM medium (DMEM F-12 HAM; Sigma-Aldrich), supplemented with antibiotics, 5% inactivated horse serum (HS; Invitrogen), 2 mM L-glutamine (Biological Industries, Beithaemek, Israel), 0.1 μg/ml cholera toxin (Sigma-Aldrich), 0.5 μg/ml hydrocortisone (Sigma-Aldrich), 10 μg/ml insulin (Biological Industries, Beithaemek, Israel) and 2 ng/ml EGF (R&D Systems). Cells were incubated at 37° C. in 5% CO2 in air, and the medium was changed every 3-4 days. Cells were passaged in trypsin/disodium ethylenediaminetetraacetic acid (Biological Industries, Beithaemek, Israel) when confluency reached 70%. One day prior to treatment the cells were plated at ~50% confluency in a medium supplemented with 10% FBS or 5% HS, accordingly.
(§2) Methylene blue viability assay—Cells were plated in 96-wells plates at cell densities of 1.5×10^3 (EJ, DLD-1), 3×10^3 (Rat-1, HCT-116, U87), 5×10^3 (SKBR3, MCF7) and 6×10^3 (MCF10A) cells/well. On the following day, cells were treated as indicated, and grown for 72 hours. Cell number determination was performed as described previously. IC-50 values were calculated using a non-linear regression model (logarithmic inhibitor vs. normalized response-variable slope) with the GraphPad Prism 6 software.

DLD-1 colon cancer cells = type: cell-based, human; settings: DLD-1; 72 hours; FIGS. 4B and 4C; read-out: IC50 (cell viability)
Excerpt: as §1, §2

[3] = tested on: HCT-116 colon cancer cells; type: cell-based, human; settings: HCT116; 72 hours; FIGS. 4B and 4C; read-out: IC50 (cell viability)
Excerpt: as §1, §2

Question: With “Myr-RRRHIVRKRTLRRLL-OH (Myristoyl-RRRHIVRKRTLRRLL-OH; SMILES CCCCCCCCCCCCCC(=O)N[C@@H](CCCNC(=N)N)C(=O)N[C@@H](CCCNC(=N)N)C(=O)N[C@@H](CCCNC(=N)N)C(=O)N[C@@H](Cc1c[nH]cn1)C(=O)N[C@H](C(=O)N[C@H](C(=O)N[C@@H](CCCNC(=N)N)C(=O)N[C@@H](CCCCN)C(=O)N[C@@H](CCCNC(=N)N)C(=O)N[C@H](C(=O)N[C@@H](CC(C)C)C(=O)N[C@@H](CCCNC(=N)N)C(=O)N[C@@H](CCCNC(=N)N)C(=O)N[C@@H](CC(C)C)C(=O)N[C@@H](CC(C)C)C(=O)O)[C@@H](C)O)C(C)C)[C@@H](C)CC) [myr-NLS]” as the substance, how does the “colony formation (total colonies area)” value (DLD-1 cells) read?
Answer: fewer and smaller colonies

Question: And the “tumor growth (tumor size, tumor weight)” value [1]?
Answer: significantly reduced tumor cell growth

Question: And the IC50 [2]?
Answer: 8.1 µM

Question: What about the IC50 (DLD-1 colon cancer cells) of the same substance?
Answer: 34.2 µM

Question: And the IC50 [3]?
Answer: 12.8 µM
